Data taken from ChEMBL document CHEMBL4420062, “Tfpi inhibitors and methods of use” (2013).
Where a SMILES comes first, the peptide text is derived from it. [ ]: non-standard residue; d: D form. Aib = CC(C)(N)C(=O)O

system: not listed separately; assay: Stability in mouse plasma assessed as parent compound remaining after 24 hrs; type: ADME, cell-free; details: read-out: Stability

Compound | remaining at 24 h
CC(=O)NCSC[C@H](NC(=O)[C@H]1CCCN1C(=O)[C@H](CCCCN)NC(=O)[C@H](CO)NC(=O)[C@H](CCC(N)=O)NC(=O)[C@H](Cc1ccccc1)NC(C)=O)C(=O)N[C@H](C(=O)N[C@@H](Cc1cnc[nH]1)C(=O)N[C@H](C(=O)N[C@@H](CC(=O)O)C(=O)N[C@H](C)C(=O)N[C@@H](Cc1ccc(O)cc1)C(=O)N[C@@H](Cc1ccccc1)C(=O)N[C@@H](CCC(=O)O)C(=O)N[C@@H](CCCNC(=N)N)C(=O)N[C@@H](CC(C)C)C(=O)NC(C)(C)C(=O)N[C@@H](C)C(=O)N[C@@H](CCCCN)C(=O)N[C@@H](CC(C)C)C(N)=O)C(C)(C)C)C(C)C | 43%
CC(=O)N[C@@H](Cc1ccccc1)C(=O)N[C@@H](CCC(N)=O)C(=O)N[C@@H](CO)C(=O)N[C@@H](CCCCN)C(=O)N1CCC[C@@H]1C(=O)N[C@@H](CC(N)=O)C(=O)N[C@H](C(=O)N[C@@H](Cc1cnc[nH]1)C(=O)N[C@H](C(=O)N[C@@H](CC(=O)O)C(=O)N[C@@H]1CSSCC[C@@H](C(=O)N[C@@H](CCCNC(=N)N)C(=O)N[C@@H](CC(C)C)C(=O)N[C@@H](C)C(=O)N[C@@H](C)C(=O)N[C@@H](CCCCN)C(=O)N[C@@H](CC(C)C)C(N)=O)NC(=O)[C@H](Cc2ccccc2)NC(=O)[C@H](Cc2ccc(O)cc2)NC1=O)C(C)(C)C)C(C)C | 11.1%
CC(=O)N[C@@H](Cc1cccc2ccccc12)C(=O)N[C@@H](CCC(N)=O)C(=O)N[C@@H](CO)C(=O)N[C@@H](CCCCN)C(=O)N1CCC[C@@H]1C(=O)N[C@@H](CC(N)=O)C(=O)N[C@H](C(=O)N[C@@H](Cc1cnc[nH]1)C(=O)N[C@H](C(=O)N[C@@H](CC(=O)O)C(=O)NCC(=O)N[C@@H](Cc1ccc(O)cc1)C(=O)N[C@@H](Cc1ccccc1)C(=O)N[C@@H](CCC(=O)O)C(=O)N[C@@H](CCCNC(=N)N)C(=O)N[C@@H](CC(C)C)C(=O)NC(C)(C)C(=O)N[C@@H](C)C(=O)N[C@@H](CCCCN)C(=O)N[C@@H](CC(C)C)C(N)=O)C(C)C)C(C)C | 0%
CC(=O)N[C@@H](Cc1ccccc1)C(=O)N[C@@H](CCC(N)=O)C(=O)N[C@@H](CO)C(=O)N[C@@H](CCCCN)C(=O)N1CCC[C@@H]1C(=O)N[C@@H](CC(N)=O)C(=O)N[C@H](C(=O)N[C@@H](Cc1cnc[nH]1)C(=O)N[C@H](C(=O)N[C@@H](CC(=O)O)C(=O)NCC(=O)N[C@@H](Cc1ccc(O)cc1)C(=O)N[C@@H](Cc1cccc2ccccc12)C(=O)N[C@@H](CCC(=O)O)C(=O)N[C@@H](CCCNC(=N)N)C(=O)N[C@@H](CC(C)C)C(=O)NC(C)(C)C(=O)N[C@@H](C)C(=O)N[C@@H](CCCCN)C(=O)N[C@@H](CC(C)C)C(N)=O)C(C)C)C(C)C | 6.3%
CC(=O)N[C@@H](Cc1ccccc1)C(=O)N[C@@H](CCC(N)=O)C(=O)N[C@@H](CO)C(=O)N[C@@H](CCCCN)C(=O)N1CCC[C@@H]1C(=O)N[C@@H](CC(N)=O)C(=O)N[C@H](C(=O)N[C@@H](Cc1cnc[nH]1)C(=O)N[C@H](C(=O)N[C@@H](CC(=O)O)C(=O)NCC(=O)N[C@@H](Cc1ccc(O)cc1)C(=O)N[C@@H](Cc1ccccc1)C(=O)N[C@@H](CCC(=O)O)C(=O)N[C@@H](CCCNC(=N)N)C(=O)N[C@@H](CC(C)C)C(=O)NC(C)(C)C(=O)N[C@@H](C)C(=O)N[C@@H](CCCCN)C(=O)N[C@@H](CC(C)C)C(N)=O)C(C)C)C1CCCCC1 | 4.1%
CC(=O)N[C@@H](Cc1ccccc1)C(=O)N[C@@H](CCC(N)=O)C(=O)N[C@@H](CO)C(=O)N[C@@H](CCCCN)C(=O)N1CCC[C@@H]1C(=O)N[C@@H](CC(N)=O)C(=O)N[C@H](C(=O)N[C@@H](Cc1cnc[nH]1)C(=O)N[C@H](C(=O)N[C@@H](CC(=O)O)C(=O)N[C@H](C)C(=O)N[C@@H](Cc1ccc(O)cc1)C(=O)N[C@@H](Cc1ccccc1)C(=O)N[C@@H](CCC(=O)O)C(=O)N[C@@H](CCCNC(=N)N)C(=O)N[C@H]1CCSSCC[C@@H](C(N)=O)NC(=O)[C@H](CCCCN)NC(=O)[C@H](C)NC(=O)C(C)(C)NC1=O)C(C)(C)C)C(C)C | 65.5%
COc1ccc(C[C@H](NC(=O)CNC(=O)[C@H](CC(=O)O)NC(=O)[C@@H](NC(=O)[C@H](Cc2cnc[nH]2)NC(=O)[C@@H](NC(=O)[C@H](CC(N)=O)NC(=O)[C@H]2CCCN2C(=O)[C@H](CCCCN)NC(=O)[C@H](CO)NC(=O)[C@H](CCC(N)=O)NC(=O)[C@H](Cc2ccccc2)NC(C)=O)C(C)C)C(C)C)C(=O)N[C@@H](Cc2ccccc2)C(=O)N[C@@H](CCC(=O)O)C(=O)N[C@@H](CCCNC(=N)N)C(=O)N[C@@H](CC(C)C)C(=O)NC(C)(C)C(=O)N[C@@H](C)C(=O)N[C@@H](CCCCN)C(=O)N[C@@H](CC(C)C)C(N)=O)cc1 | 7.3%
CCC(CC)(NC(=O)[C@H](CC(C)C)NC(=O)[C@H](CCCNC(=N)N)NC(=O)[C@H](CCC(=O)O)NC(=O)[C@H](Cc1ccccc1)NC(=O)[C@H](Cc1ccc(O)cc1)NC(=O)[C@@H](C)NC(=O)[C@H](CC(=O)O)NC(=O)[C@@H](NC(=O)[C@H](Cc1cnc[nH]1)NC(=O)[C@@H](NC(=O)[C@H](CC(N)=O)NC(=O)[C@H]1CCCN1C(=O)[C@H](CCCCN)NC(=O)[C@H](CO)NC(=O)[C@H](CCC(N)=O)NC(=O)[C@H](Cc1ccccc1)NC(C)=O)C(C)C)C(C)(C)C)C(=O)N[C@@H](C)C(=O)N[C@@H](CCCCN)C(=O)N[C@@H](CC(C)C)C(N)=O | 62.9%

system: not listed separately; assay: Stability in human plasma assessed as parent compound remaining after 24 hrs; type: ADME, cell-free; details: read-out: Stability

Compound | remaining at 24 h
CC(=O)NCSC[C@H](NC(=O)[C@H]1CCCN1C(=O)[C@H](CCCCN)NC(=O)[C@H](CO)NC(=O)[C@H](CCC(N)=O)NC(=O)[C@H](Cc1ccccc1)NC(C)=O)C(=O)N[C@H](C(=O)N[C@@H](Cc1cnc[nH]1)C(=O)N[C@H](C(=O)N[C@@H](CC(=O)O)C(=O)N[C@H](C)C(=O)N[C@@H](Cc1ccc(O)cc1)C(=O)N[C@@H](Cc1ccccc1)C(=O)N[C@@H](CCC(=O)O)C(=O)N[C@@H](CCCNC(=N)N)C(=O)N[C@@H](CC(C)C)C(=O)NC(C)(C)C(=O)N[C@@H](C)C(=O)N[C@@H](CCCCN)C(=O)N[C@@H](CC(C)C)C(N)=O)C(C)(C)C)C(C)C | 86.2%
CC(=O)N[C@@H](Cc1ccccc1)C(=O)N[C@@H](CCC(N)=O)C(=O)N[C@@H](CO)C(=O)N[C@@H](CCCCN)C(=O)N1CCC[C@@H]1C(=O)N[C@@H](CC(N)=O)C(=O)N[C@H](C(=O)N[C@@H](Cc1cnc[nH]1)C(=O)N[C@H](C(=O)N[C@@H](CC(=O)O)C(=O)N[C@@H]1CSSCC[C@@H](C(=O)N[C@@H](CCCNC(=N)N)C(=O)N[C@@H](CC(C)C)C(=O)N[C@@H](C)C(=O)N[C@@H](C)C(=O)N[C@@H](CCCCN)C(=O)N[C@@H](CC(C)C)C(N)=O)NC(=O)[C@H](Cc2ccccc2)NC(=O)[C@H](Cc2ccc(O)cc2)NC1=O)C(C)(C)C)C(C)C | 61.5%
CC(=O)N[C@@H](Cc1cccc2ccccc12)C(=O)N[C@@H](CCC(N)=O)C(=O)N[C@@H](CO)C(=O)N[C@@H](CCCCN)C(=O)N1CCC[C@@H]1C(=O)N[C@@H](CC(N)=O)C(=O)N[C@H](C(=O)N[C@@H](Cc1cnc[nH]1)C(=O)N[C@H](C(=O)N[C@@H](CC(=O)O)C(=O)NCC(=O)N[C@@H](Cc1ccc(O)cc1)C(=O)N[C@@H](Cc1ccccc1)C(=O)N[C@@H](CCC(=O)O)C(=O)N[C@@H](CCCNC(=N)N)C(=O)N[C@@H](CC(C)C)C(=O)NC(C)(C)C(=O)N[C@@H](C)C(=O)N[C@@H](CCCCN)C(=O)N[C@@H](CC(C)C)C(N)=O)C(C)C)C(C)C | 19.3%

target: T1, Tissue factor pathway inhibitor (Homo sapiens, UniProt P10646); assay: Binding affinity to TFPI (unknown origin) incubated for […] using tracer peptide JBT0131 by screening ELISA; details: not given
T1 sequence (P10646 whole entry): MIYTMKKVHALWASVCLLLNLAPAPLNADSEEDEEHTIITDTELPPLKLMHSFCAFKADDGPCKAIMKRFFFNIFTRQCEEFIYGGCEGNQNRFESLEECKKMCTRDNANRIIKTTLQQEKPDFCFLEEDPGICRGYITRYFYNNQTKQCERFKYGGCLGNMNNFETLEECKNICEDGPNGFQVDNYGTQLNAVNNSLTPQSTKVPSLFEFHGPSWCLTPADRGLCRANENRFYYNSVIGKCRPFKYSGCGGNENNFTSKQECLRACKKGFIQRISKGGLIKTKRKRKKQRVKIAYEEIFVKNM

IC50 | Compound
> 5 µM | Ac-FQSDKNVFVFGYFERLRAKL-NH2
> 5 µM | CC(=O)N[C@@H](Cc1ccccc1)C(=O)N[C@@H](CCC(N)=O)C(=O)N[C@@H](CO)C(=O)N[C@@H](CCCCN)C(=O)NCC(=O)N[C@@H](CC(N)=O)C(=O)N[C@H](C(=O)N[C@@H](Cc1ccccc1)C(=O)N[C@H](C(=O)N[C@@H](CC(=O)O)C(=O)NCC(=O)NC(C)(C)C(=O)NC(C)(C)C(=O)N[C@@H](C)C(=O)N[C@@H](CCCCN)C(=O)N[C@@H](CC(C)C)C(N)=O)C(C)C)C(C)C (Ac-FQSKGNVFVDG[Aib][Aib]AKL-NH2)
> 5 µM | Ac-FQSFKNVFVFGYFERLRAKL-NH2
> 5 µM | Ac-FQSKKNVFVFGDFERLRAKL-NH2
> 5 µM | Ac-FQSKKNYDVFGYFERLRAKL-NH2
> 5 µM | Ac-FQSKKNVFVFGYFERLFAKL-NH2
< 0.05 µM | Ac-FQSKGNVFVDGYFERLRMKL-NH2
< 0.05 µM | Ac-FQSKGNVFVDGYFERLRRKL-NH2
